Results taken from PMC3038857, “Using Nuclear Receptor Activity to Stratify Hepatocarcinogens” (PLoS ONE, 2011).
Like-named read-outs stand apart in the source and are kept apart here.

Tests used:
FXR (NR1H4) [1] = target: T1, FXR (NR1H4) (Homo sapiens, UniProt Q96RI1); experiment: NVS_NR_hFXR: Human FXR CDCA (cell-free HTS); assay type: binding; settings: scale not given, looks like -log10 of molar active concentration, 0 = no activity
T1 sequence (Q96RI1 1-486): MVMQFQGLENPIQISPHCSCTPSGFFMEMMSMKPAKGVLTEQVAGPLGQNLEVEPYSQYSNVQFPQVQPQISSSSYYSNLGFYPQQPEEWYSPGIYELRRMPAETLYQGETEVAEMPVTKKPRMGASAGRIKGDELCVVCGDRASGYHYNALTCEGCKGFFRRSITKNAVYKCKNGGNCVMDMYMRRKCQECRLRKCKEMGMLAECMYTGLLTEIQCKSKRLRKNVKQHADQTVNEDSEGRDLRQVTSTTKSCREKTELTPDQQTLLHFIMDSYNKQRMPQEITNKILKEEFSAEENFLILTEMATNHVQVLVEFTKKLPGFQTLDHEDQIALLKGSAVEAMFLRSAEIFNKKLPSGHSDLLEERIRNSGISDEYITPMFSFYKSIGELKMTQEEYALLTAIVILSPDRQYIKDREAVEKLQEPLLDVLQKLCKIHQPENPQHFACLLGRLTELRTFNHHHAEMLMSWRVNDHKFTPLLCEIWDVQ
Text: These are a collection of biochemical assays measuring binding constants and enzyme inhibition values. Chemicals were initially screened at a single concentration in duplicate wells at a concentration of 10 [drawing 63] M for cytochrome P-450 assays and 25 [drawing 64] M for all others. […] These assays were run by Caliper Life Sciences (Hanover, MD) under contract to EPA. Short assay descriptions are available at: http://www.caliperls.com/products/contract-research/in-vitro/.
Cell-free HTS Assays: A collection of biochemical assays measuring binding constants and enzyme inhibition values. […] These assays were run by Caliper Life Sciences (Hanover, MD) under contract to EPA. Short assay descriptions are available at http://www.caliperls.com/products/contract-research/in-vitro/. Values for all endpoints were imported into GeneData Screener (Basel, Switzerland) and normalised to solvent controls from the same plate as the tested compounds and expressed as percent of neutral control. Concentration-response curves were fit in GeneData Screener (Basel, Switzerland) Condeseo module using the Hill equation and AC50 values were determined. […] Detailed description of the methods, data and analysis methods for this dataset are described in a separate publication.

FXR (NR1H4) [2] = target: T1, FXR (NR1H4); experiment: ATG_FXR_TRANS: Factorial reporter gene assay (HepG2); assay type: cell-based; design: expressed in transfected cells; host or cells: HepG2; scale not given here; settings: scale not given, looks like -log10 of molar active concentration, 0 = no activity
Protocol: A multiple reporter transcription unit (MRTU) library consisting of 48 transcription factor binding sites was transfected into the HepG2 human liver hepatoma cell line. In addition to the cis-acting reporter genes (CIS), a modification of the approach was used to generate a trans-system (TRANS) with a mammalian one-hybrid assay consisting of an additional 25 MRTU library reporting the activity of nuclear receptor super-family members. […] These assays were performed by Attagene Inc. (Morrisville NC) under contract to EPA.
In addition to the cis-acting reporter genes (CIS), a modification of the approach was used to generate a trans-system (TRANS) with a mammalian one-hybrid assay consisting of an additional 25 MRTU library reporting the activity of nuclear receptor super-family members. […] Chemicals were then tested in the CIS and TRANS assays at seven concentrations starting at the MTC and followed by three-fold serial dilutions. These assays were performed by Attagene Inc. (Morrisville NC) under contract to EPA. Detailed description of the methods, data and analysis methods for this dataset will be presented in a separate publication.

Mouse Liver [3] = settings: ref ToxRefDB, cited from earlier work
Mouse Liver [4] = settings: ref ToxRefDB, cited from earlier work; remark: listed apart in the source
AR (androgen receptor) = target: T2, AR (androgen receptor) (Homo sapiens, UniProt P10275); experiment: NCGC_AR_Agonist: GAL4 BLAM Reporter gene assay: AR; assay type: cell-based; settings: agonist mode; scale not given, looks like -log10 of molar active concentration; 0 = no activity
T2 construct: expressed in transfected cells
T2 sequence (P10275 1-920): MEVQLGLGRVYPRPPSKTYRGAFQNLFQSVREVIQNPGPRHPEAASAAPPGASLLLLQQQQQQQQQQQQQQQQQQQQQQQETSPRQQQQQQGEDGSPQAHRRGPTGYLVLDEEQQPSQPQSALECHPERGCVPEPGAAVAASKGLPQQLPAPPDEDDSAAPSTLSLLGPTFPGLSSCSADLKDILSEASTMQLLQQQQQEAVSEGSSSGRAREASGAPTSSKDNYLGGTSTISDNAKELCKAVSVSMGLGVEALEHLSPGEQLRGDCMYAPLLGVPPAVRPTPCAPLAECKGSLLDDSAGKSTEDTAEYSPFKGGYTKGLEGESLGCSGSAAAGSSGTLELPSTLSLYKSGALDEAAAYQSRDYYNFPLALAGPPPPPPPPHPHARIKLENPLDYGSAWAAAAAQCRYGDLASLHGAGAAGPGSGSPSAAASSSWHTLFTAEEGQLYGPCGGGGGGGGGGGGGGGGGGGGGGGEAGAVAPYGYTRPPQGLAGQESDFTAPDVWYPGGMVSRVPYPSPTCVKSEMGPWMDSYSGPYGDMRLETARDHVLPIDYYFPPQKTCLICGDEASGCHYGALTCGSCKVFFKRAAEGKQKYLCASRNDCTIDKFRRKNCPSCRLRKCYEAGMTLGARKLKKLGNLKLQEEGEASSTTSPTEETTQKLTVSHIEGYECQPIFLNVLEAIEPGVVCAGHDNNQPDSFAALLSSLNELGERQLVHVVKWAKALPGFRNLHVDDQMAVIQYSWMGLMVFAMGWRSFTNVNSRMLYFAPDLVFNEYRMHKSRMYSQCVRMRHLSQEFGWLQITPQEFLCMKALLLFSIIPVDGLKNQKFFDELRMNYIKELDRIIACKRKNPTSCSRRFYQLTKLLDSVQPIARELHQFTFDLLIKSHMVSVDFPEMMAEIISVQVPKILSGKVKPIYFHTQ
Protocol: These assays measure binding constants and enzyme inhibition values for nuclear receptors. The targets include [drawing 67] , [drawing 68] , [drawing 69] , [drawing 70] , [drawing 71] , [drawing 72] , [drawing 73] , [drawing 74] , [drawing 75] and [drawing 76] . Each of the nuclear receptor targets was measured in agonist mode. Assays were run at the NIH Chemical Genomics Center (Rockville, MD).
Cell-based HTS Assays: These assays measuring binding constants and enzyme inhibition values for nuclear receptors. The targets include AR, ER, FXR, LXR, PPARα, PPARδ, PPARγ, RXRα, RXRβ and PXR. Each of the nuclear receptor targets was measured in both agonist and antagonist mode, but the antagonist data is still undergoing analysis due to possible interference between cytotoxicity and assay activity, so antagonist mode data were not used in the present analysis. Assays were run at the NIH Chemical Genomics Center (Rockville, MD) as part of the Tox21 collaboration. […] The R^2 was required to be ≥0.5. Values where only the highest concentration exceeded 50% activity were excluded to eliminate weak or false positives. Detailed description of the methods, data and analysis methods for this dataset will be presented in a separate publication.

[5] = mouse chronic study, liver, neoplastic lesion, coded 6 / Inf / 0, code not explained here
[6] = mouse chronic study, liver, any lesion, coded 6 / Inf / 0, code not explained here

| SMILES | NVS_NR_hFXR (FXR (NR1H4) [1]) | ATG_FXR_TRANS (FXR (NR1H4) [2]) | CHR_Mouse_Liver_3_NeoplasticLesion (Mouse Liver [3]; [5]) | CHR_Mouse_Liver_1_AnyLesion (Mouse Liver [4]; [6]) | NCGC_AR_Agonist (AR (androgen receptor)) | further results |
| --- | --- | --- | --- | --- | --- | --- |
| COC(=O)c1ccccc1CS(=O)(=O)NC(=O)Nc1nc(OC)cc(OC)n1 [r33] | 0 | 0 |  |  |  |  |
| CC(C)N1C(=O)c2ccccc2NS1(=O)=O [r37] |  |  | 6 | 6 |  |  |
| COc1ccc(-c2ccccc2)cc1NNC(=O)OC(C)C [r38] | 0 | 0 | 6 | 6 | 0 |  |
| Cc1c(COC(=O)C2C(/C=C(\Cl)C(F)(F)F)C2(C)C)cccc1-c1ccccc1 (centres unmarked) [r39] | 0 | 0 | 6 | 6 |  |  |
| CC(C)(c1ccc(O)cc1)c1ccc(O)cc1 [r40] |  |  |  | 6 | 0 |  |
| OB(O)O [r41] | 0 | 0 |  |  |  |  |
| O=C(Nc1ccccc1-c1ccc(Cl)cc1)c1cccnc1Cl [r42] |  |  |  | 6 |  |  |
| CCC(C)n1c(=O)[nH]c(C)c(Br)c1=O (centres unmarked) [r43] | 0 | 0 | 6 | 6 |  |  |
| N#Cc1cc(Br)c(O)c(Br)c1 [r44] | 0 | 0 | 6 | 6 | 0 |  |
| CC(C)N1C(=O)N(c2ccccc2)CS/C1=N\C(C)(C)C [r45] |  |  | 6 | 6 | 0 |  |
| CCCCOCN(C(=O)CCl)c1c(CC)cccc1CC [r46] | 0 | 0 |  |  | 0 |  |
| C=CCOC(=O)C(C)(C)OC(=O)c1cc(-n2c(=O)cc(C(F)(F)F)n(C)c2=O)ccc1Cl [r47] |  |  |  | 6 |  |  |
| CCSC(=O)N(CC(C)C)CC(C)C [r49] |  |  |  | 6 | 0 |  |
| CNC(=O)Oc1cccc2ccccc12 [r52] | 0 | 0 | 6 | 6 |  |  |
| CC1=C(C(=O)Nc2ccccc2)SCCO1 [r53] | 0 | 0 |  | 6 | 0 |  |
| CCOC(=O)C(Cl)Cc1cc(-n2nc(C)n(C(F)F)c2=O)c(F)cc1Cl (centres unmarked) [r54] | 0 | 0 |  | 6 |  |  |
| N#Cc1c(Cl)c(Cl)c(Cl)c(C#N)c1Cl [r58] | 0 | 0 |  |  |  |  |
| CC(C)OC(=O)Nc1cccc(Cl)c1 [r59] | 0 | 0 |  | 6 |  |  |
| Cc1ccccc1CO[C@@H]1C[C@@]2(C(C)C)CC[C@]1(C)O2 [r64] |  |  | 6 | 6 | 0 |  |
| C#CCC1=C(C)[C@H](OC(=O)[C@H]2[C@H](C=C(C)C)C2(C)C)CC1=O [r249] |  |  |  |  |  | CHR_Mouse_Liver_1_AnyLesion (Mouse Liver [4]; mouse, chronic study): 6 |
| CCCC1COC(Cn2cncn2)(c2ccc(Cl)cc2Cl)O1 (centres unmarked) [r262] |  |  |  |  |  | CHR_Mouse_Liver_3_NeoplasticLesion (Mouse Liver [3]; mouse, chronic study): 6; CHR_Mouse_Liver_1_AnyLesion (Mouse Liver [4]; mouse, chronic study): 6 |
| CC(C)=CC1C(C(=O)OCc2coc(Cc3ccccc3)c2)C1(C)C (centres unmarked) [r280] |  |  |  |  |  | CHR_Mouse_Liver_3_NeoplasticLesion (Mouse Liver [3]; chronic study, mouse liver): 6; CHR_Mouse_Liver_1_AnyLesion (Mouse Liver [4]; chronic study, mouse liver): 6 |
| CC(C)Oc1cc(-n2nc(C(C)(C)C)oc2=O)c(Cl)cc1Cl [row 225] |  |  |  |  |  | CHR_Mouse_Liver_3_NeoplasticLesion (Mouse Liver [3]; chronic mouse study, liver): 6; CHR_Mouse_Liver_1_AnyLesion (Mouse Liver [4]; chronic mouse study, liver): 6 |
